Legend:
CheWS [1] = molecular target: T1, CheWS (Treponema denticola, UniProt F7IUZ1); test: isothermal titration calorimetry with purified domain; format: binding; design: gene cheW-1; isolated CheRlike domain (residues 203–444)
Target sequence in this assay (F7IUZ1 entry or part of it): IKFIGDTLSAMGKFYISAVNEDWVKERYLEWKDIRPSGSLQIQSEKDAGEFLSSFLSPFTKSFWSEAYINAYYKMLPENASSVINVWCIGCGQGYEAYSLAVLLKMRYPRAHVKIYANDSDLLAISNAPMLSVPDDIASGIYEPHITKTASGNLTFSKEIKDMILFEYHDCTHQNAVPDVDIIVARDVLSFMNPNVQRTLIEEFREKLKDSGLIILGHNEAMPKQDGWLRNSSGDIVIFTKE

CheWS [2] = molecular target: T1, CheWS; test: isothermal titration calorimetry with purified protein; format: binding; design: gene cheW-1; full-length CheWS (CheW-CheRlike), poly-His tag
Target sequence in this assay (F7IUZ1 entry or part of it): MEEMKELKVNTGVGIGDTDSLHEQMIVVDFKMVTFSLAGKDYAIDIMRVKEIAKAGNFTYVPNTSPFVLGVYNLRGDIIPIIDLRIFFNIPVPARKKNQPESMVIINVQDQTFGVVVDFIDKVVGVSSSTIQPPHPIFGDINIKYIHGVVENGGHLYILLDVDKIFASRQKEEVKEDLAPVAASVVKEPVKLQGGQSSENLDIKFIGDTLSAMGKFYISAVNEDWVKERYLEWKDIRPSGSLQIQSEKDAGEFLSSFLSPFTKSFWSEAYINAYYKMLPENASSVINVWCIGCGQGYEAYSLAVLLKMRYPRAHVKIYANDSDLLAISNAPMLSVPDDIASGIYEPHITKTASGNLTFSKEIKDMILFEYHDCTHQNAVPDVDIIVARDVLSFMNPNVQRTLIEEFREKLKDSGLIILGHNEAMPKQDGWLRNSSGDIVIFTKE

| Compound | Kd (CheWS [1]) | Kd (CheWS [2]) |
| --- | --- | --- |
| C[S+](CC[C@H](N)C(=O)[O-])C[C@H]1O[C@@H](n2cnc3c(N)ncnc32)[C@H](O)[C@@H]1O (some centres unmarked) [SAM, S-adenosylmethionine] | ~18 µM |  |
| Nc1ncnc2c1ncn2[C@@H]1O[C@H](CSCC[C@H](N)C(=O)O)[C@@H](O)[C@H]1O [SAH, S-adenosylhomocysteine] |  | ~17 µM |
